Like-named read-outs stand apart in the source and are kept apart here.
Key:
[1] = target: T1, human recombinant α4β2 nicotinic receptors (Homo sapiens, UniProt P17787+P43681); experiment: [3H]-nicotine radioligand binding, SH-EP1/human α4β2 membranes; conditions: read-out: inhibition of [3H]-nicotine binding to human recombinant α4β2 nicotinic receptors
T1 construct: expressed in transfected cells; host or cells: SH-EP1 clonal cells
Procedure: Preparation of membranes from SH-EP1/human α4β2 clonal cells: Cell pellets from 40 150 mm culture dishes were pooled, and homogenized by Polytron (Kinematica GmbH, Switzerland) in 20 milliliters of ice-cold preparative buffer. The homogenate was centrifuged at 48,000 g for 20 minutes at 4° C. The resulting pellet was re-suspended in 20 mL of ice-cold preparative buffer and stored at −20° C.
On the day of the assay, the frozen membranes were thawed and spun at 48,000×g for 20 min. The supernatant was decanted and discarded. The pellet was resuspended in Dulbecco's phosphate buffered saline (PBS, Life Technologies) pH 7.4 and homogenized with the Polytron for 6 seconds. Protein concentrations were determined using a Pierce BCA Protein Assay Kit, with bovine serum albumin as the standard (Pierce Chemical Company, Rockford, Ill.).
Membrane preparations (approximately 50 μg for human and 200-300 μg protein for rat α4β2) were incubated in PBS (50 μL and 100 μL respectively) in the presence of competitor compound (0.01 nM to 100 μM) and 5 nM [^3H]nicotine for 2-3 hours on ice. […] Filters were then counted to determine radioactivity bound to the membranes by liquid scintillation counting (2200CA Tri-Carb LSC, Packard Instruments, 50% efficiency or Wallac Trilux 1450 MicroBeta, 40% efficiency, Perkin Elmer).
Data were expressed as disintegrations per minute (DPMs). […]

[2] = target: T2, rat native α4β2 receptors (Rattus norvegicus, UniProt P09483+P12390); experiment: Radioligand binding, rat cortex membranes (α4β2); conditions: read-out: Ki, inhibition of [3H]epibatidine binding to rat native α4β2 receptors
T2 construct: rat native α4β2 receptors; from tissue; host or cells: rat (female Sprague-Dawley) cerebral cortex membranes
T2 sequence (P09483 31-630): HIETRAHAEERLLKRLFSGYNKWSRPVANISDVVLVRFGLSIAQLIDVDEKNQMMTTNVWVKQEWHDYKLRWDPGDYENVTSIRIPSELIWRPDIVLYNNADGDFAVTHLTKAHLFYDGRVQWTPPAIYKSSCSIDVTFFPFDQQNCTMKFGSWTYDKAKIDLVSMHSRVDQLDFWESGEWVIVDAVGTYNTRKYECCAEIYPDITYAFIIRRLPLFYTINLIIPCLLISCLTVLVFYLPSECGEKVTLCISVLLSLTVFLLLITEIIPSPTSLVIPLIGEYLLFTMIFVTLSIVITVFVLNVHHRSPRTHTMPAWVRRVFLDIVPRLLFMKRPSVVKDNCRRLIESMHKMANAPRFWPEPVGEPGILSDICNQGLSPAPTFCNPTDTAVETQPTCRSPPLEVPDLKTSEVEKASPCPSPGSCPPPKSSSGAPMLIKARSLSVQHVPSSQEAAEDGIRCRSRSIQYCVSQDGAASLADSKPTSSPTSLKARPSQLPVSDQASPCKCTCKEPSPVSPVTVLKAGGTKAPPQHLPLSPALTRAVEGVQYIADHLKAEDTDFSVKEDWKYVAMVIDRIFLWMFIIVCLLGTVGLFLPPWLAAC
T2 sequence (P12390 25-500): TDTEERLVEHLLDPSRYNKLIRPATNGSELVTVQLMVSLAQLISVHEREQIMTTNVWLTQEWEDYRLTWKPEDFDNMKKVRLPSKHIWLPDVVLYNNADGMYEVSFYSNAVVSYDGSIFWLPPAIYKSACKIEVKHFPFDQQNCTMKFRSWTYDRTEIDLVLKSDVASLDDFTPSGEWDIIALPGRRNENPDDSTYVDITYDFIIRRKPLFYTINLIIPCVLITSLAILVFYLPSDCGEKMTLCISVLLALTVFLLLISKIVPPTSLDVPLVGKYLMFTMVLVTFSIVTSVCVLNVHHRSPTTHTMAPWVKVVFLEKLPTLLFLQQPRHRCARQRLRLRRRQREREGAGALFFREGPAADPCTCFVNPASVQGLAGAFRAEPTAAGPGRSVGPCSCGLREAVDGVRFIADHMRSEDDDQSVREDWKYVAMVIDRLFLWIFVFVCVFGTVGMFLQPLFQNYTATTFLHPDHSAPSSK
Procedure: Preparation of Membranes from Rat Cortex: Rats (Female, Sprague-Dawley), weighing 150-250 g, were maintained on a 12 h light/dark cycle and were allowed free access to water and food supplied by PMI Nutrition International, Inc. Animals were anesthetized with 70% CO2, and then decapitated. Brains were removed and placed on an ice-cold platform. The cerebral cortex was removed and placed in 20 volumes (weight:volume) of ice-cold preparative buffer (137 mM NaCl, 10.7 mM KCl, 5.8 mM KH2PO4, 8 mM Na2HPO4, 20 mM HEPES (free acid), 5 mM iodoacetamide, 1.6 mM EDTA, pH 7.4); PMSF, dissolved in methanol to a final concentration of 100 μM, was added and the suspension was homogenized by Polytron. […]
On the day of the assay, the frozen membranes were thawed and spun at 48,000×g for 20 min. […] Protein concentrations were determined using a Pierce BCA Protein Assay Kit, with bovine serum albumin as the standard (Pierce Chemical Company, Rockford, Ill.).
[…] Filters were then counted to determine radioactivity bound to the membranes by liquid scintillation counting (2200CA Tri-Carb LSC, Packard Instruments, 50% efficiency or Wallac Trilux 1450 MicroBeta, 40% efficiency, Perkin Elmer).
Data were expressed as disintegrations per minute (DPMs). […] Ki values were calculated using the Cheng-Prussof equation (1973): […]

[3] = system: normal rats; experiment: Novel object recognition (NOR) task; assay type: in vivo, rat; conditions: for Minimum Effective Dose (MED): oral, rats (FIG. 2)
Procedure: Memory was assessed by using the three-trial novel object recognition test. On the first day (exploratory trial), rats were allowed to explore an open arena (44.5×44.5×30.5 cm) for 6 min. On the second day (acquisition trial), rats were allowed to explore the same arena in the presence of two identical objects (both object A) for 3 minutes. On the third day (retention or recall trial), performance was evaluated by allowing the same animal to re-explore the arena for 3 minutes in the presence of two different objects: the familiar object A and a novel object B. An inter-trial interval of 24 hours was imposed between the three NOR trials. Recognition memory was assessed by comparing the time spent exploring a novel (object B) versus a familiar (object A) object during the recall trial. Recognition index was assessed for each animal and expressed as a ratio ((time B/time A+time B)×100).

[4] = target: α7 nicotinic ACh receptors (Homo sapiens, UniProt P36544); experiment: Electrophysiology at α7, dose-response and co-application with ACh (Dynaflow chip); assay type: cell-based
α7 nicotinic ACh receptors, sequence (P36544 23-502): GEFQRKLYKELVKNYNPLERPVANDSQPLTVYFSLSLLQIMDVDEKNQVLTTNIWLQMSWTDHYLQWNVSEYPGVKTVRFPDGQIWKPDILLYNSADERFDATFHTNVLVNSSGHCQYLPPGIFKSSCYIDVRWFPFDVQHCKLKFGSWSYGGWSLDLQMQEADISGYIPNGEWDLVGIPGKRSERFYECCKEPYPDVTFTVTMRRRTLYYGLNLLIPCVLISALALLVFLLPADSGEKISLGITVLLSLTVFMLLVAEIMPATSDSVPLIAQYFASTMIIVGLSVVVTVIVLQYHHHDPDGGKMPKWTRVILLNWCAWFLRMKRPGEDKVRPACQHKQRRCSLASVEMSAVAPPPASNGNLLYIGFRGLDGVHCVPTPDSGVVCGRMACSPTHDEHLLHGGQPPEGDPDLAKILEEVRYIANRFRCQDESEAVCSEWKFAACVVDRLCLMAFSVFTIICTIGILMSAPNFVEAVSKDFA
Procedure: Hump currents are defined as the tail current observed during co-application with endogenous ACh following agonist removal.
The channels were prepared as follows: Control solution (channel #2), application ligand itself (channel #3), application of acetylcholine itself (channel #1), and application of mixture of acetylcholine and ligand (channel #4).
Curve 1, FIG. 7B: The bar above the curve indicates time of ACh application. The curve represents current induced by a one second application of 70 μM ACh. The curve illustrates the result from moving the cell from channel #2 to channel #1 for a 1 second application of ACh and back to channel 2 (washout).
Curve 4, FIG. 7B: Curve 4 represents a repetition of Curve 1 at the end of measurements after application of the ligand and ACh/ligand mixture (recovery).
Curve 2, FIG. 7B: The down/up arrows indicates time of application.

T1 sequence (P43681 29-627 limits assumed): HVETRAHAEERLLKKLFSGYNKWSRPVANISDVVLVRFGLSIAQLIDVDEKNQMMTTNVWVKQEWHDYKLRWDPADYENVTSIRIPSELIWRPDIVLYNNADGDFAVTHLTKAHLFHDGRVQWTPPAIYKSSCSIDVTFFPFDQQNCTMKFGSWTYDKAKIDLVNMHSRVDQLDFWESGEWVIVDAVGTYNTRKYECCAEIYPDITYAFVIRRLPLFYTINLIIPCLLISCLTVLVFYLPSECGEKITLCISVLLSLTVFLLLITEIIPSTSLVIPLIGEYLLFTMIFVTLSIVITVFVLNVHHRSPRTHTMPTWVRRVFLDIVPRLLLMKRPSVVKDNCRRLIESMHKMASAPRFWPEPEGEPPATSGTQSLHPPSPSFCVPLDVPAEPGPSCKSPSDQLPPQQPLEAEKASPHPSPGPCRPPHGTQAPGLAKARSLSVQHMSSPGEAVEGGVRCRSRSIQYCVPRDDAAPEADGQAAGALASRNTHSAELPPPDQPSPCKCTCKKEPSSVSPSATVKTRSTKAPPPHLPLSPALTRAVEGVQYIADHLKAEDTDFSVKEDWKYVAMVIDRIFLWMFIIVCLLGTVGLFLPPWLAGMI
T1 sequence (P17787 26-502): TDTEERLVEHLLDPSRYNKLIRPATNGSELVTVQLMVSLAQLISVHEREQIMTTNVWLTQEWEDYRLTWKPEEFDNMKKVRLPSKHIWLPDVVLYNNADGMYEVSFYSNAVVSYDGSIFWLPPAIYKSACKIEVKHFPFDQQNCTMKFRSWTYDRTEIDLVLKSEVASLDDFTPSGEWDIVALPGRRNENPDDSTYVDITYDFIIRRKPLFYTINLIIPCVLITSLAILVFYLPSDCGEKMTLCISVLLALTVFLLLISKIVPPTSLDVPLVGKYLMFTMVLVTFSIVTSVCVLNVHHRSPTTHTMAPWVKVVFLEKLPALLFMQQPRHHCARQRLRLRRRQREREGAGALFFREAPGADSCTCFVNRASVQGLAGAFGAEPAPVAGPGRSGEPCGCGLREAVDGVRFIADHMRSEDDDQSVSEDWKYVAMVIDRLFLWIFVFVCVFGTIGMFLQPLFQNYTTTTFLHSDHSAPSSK

O=C(N[C@@H]1C2CCN(CC2)[C@H]1Cc1cccnc1)c1cc(F)cc(F)c1 [Compound A]
Ki [1]: 1.47 µM | Ki [2]: 4.12 µM | lowest dose with statistically significant effect ([3]; NOR vs. dose, FIG. 1): 0.1 mg/kg | lowest dose with statistically significant effect ([3]; NOR, FIGS. 1-4): 0.03 µM/kg | effects observed out to, after dosing ([3]; NOR, FIGS. 1-4, dose not given in the sentence): ≤ 18 h | lowest dose with statistically significant effect ([3]; NOR, determination of minimum effective dose, FIG. 2): 0.03 mg/kg | Minimum Effective Dose (MED) ([3]; NOR, listed as (2S,3R)-N-2-((3-pyridinyl)methyl)-1-azabicyclo[2.2.2]oct-3-yl)-3,5-difluorobenza): MED = 0.084 μmol/kg | Minimum Effective Dose (MED) ([3]; NOR, listed as (2S,3R)—N-2-((3-pyridinyl)methyl)-1-azabicyclo[2.2.2]oct-3-yl)-3,5-difluorobenza): 0.084 µmol/kg | effect in "recall only" session ([3]; single oral administration of 0.28 μmol/kg on day 3): demonstrated pro-cognitive effects | type of activity at the α7 NNR [4]: partial agonists | current on application of the ligand following application of ACh ([4]; 200 nM ligand, Curve 3 FIG. 7B): profound “hump” current | current on application of the ligand alone ([4]; 200 nM, 5 second application, Curve 2 FIG. 7B): do not produce robust macro currents | effect on ACh-induced current ([4]; co-application of compound with ACh, FIG. 6): enhances ACh-induced current | EC50 ([4]; co-application with ACh, 100-500 nM range, n=4, FIG. 7C, read-out: EC50 of hump current): 0.12 µM | concentration at Emax of hump current ([4]; co-application with ACh, FIG. 7C): approximately 500 nM | Emax ([4]; dose-response, FIG. 5): 54.4% | EC50 ([4]; dose-response, FIG. 5, read-out: EC50 at α7 nicotinic receptors): 1.6 µM
